# Test results from patent publication US12404332B2, “Methods for diagnosing and treating cancers” (Research Development Foundation, priority 2020, dated 2025).
# Residues, ends and D or L forms follow the SMILES beside them. *: point of attachment. Cbz = O=C(OCc1ccccc1)*
# Tests used:
# [1] = tested on: RT4 human bladder cancer cells; assay: In vitro viability (MTT) of CTRL versus PD-L1^KO RT4 cells; format: cell-based; details: monotherapy
# Procedure: (§1) Cells (1×10^3) were plated in 96 well plastic culture plates in respective medium and treated for 5 days with DDRi or 3 days with gemcitabine at indicated concentrations. Drug concentrations were carefully optimized in preliminary work not shown. Cell viability was by MTT (3-(4,5-dimethylthiazol-2-yl)-2,5-diphenyl tetrazolium bromide) at 5 mg/ml. Absorbance was measured at 540 nm. Results are presented as a mean+/−SEM of ≥6 replicates. Total cells and viability were confirmed using a Vi-Cell-XR (Beckman Coulter).
# [2] = tested on: ID8agg murine ovarian cancer cells; assay: In vitro viability (MTT) of CTRL versus PD-L1^KO ID8agg cells; format: cell-based, mouse; details: monotherapy
# Procedure: as §1
# [3] = tested on: 4T1 murine breast cancer cells; assay: In vitro viability (MTT) of CTRL versus PD-L1^lo 4T1 cells; format: cell-based, mouse
# Procedure: as §1
# RT4 cells = assay: Chk1 inhibitor synthetic lethality with beta-lactam antibiotics, RT4 cells; format: cell-based, human; details: for synthetic lethality with Chk1i: RT4 cells, Chk1i rabusertib
# Procedure: Additional experiments were performed, as follows. MB49 were plated at 2,000 cells/well in 96 well flat bottom plates and treated with PD-L1 depleting drugs, olaparib (2.5 μM), and combination for 96 hours. RT4 were plated at 2,000 cells/well in 96 well flat bottom plates and treated with cefepime, rabusertib (1 μM), praxasertib, or combination for 96 hours. ID8agg, 4T1, and B16 cells were plated on fibronectin at 500 cells/well and treated with cefepime, rabusertib, or combination for 96 hours. Normalized treatment combination to DDR inhibitor alone, and PD-L1 depleting drug to vehicle alone (DMSO) were evaluated.
# PD-L1 in OVCAR5 cells = assay: PD-L1 mRNA, protein and ubiquitination in OVCAR5 cells; format: cell-based, human; details: OVCAR5 cells
# Procedure: FIGS. 39A-C: CAMB reduces PD-L1 through ubiquitination. FIG. 39A, RT-qPCR for PD-L1 mRNA in OVCAR5 and ID8agg cells treated with (+) or without (−) chlorambucil for 48 hours. (n=4). FIG. 39B, Western blot for PD-L1 protein in OVCAR5 cells with (+) or without (−) MG132 for 6 or 20 hours. (upper panel). PD-L1 expression in OVCAR5 cells treated with chlorambucil 48 hours and/or MG132 for 6 hours (lower panel). FIG. 39C, Ubiquitinated PD-L1 was immunoprecipitated (IP) and subjected to Western blot analysis with anti-ubiquitin (Ub) antibody. Cells were treated with chlorambucil for indicated times prior to ubiquitination analysis.
# (§2) Western blotting and immunoprecipitation: To prepare whole cell lysates, cells were harvested and lysed in RIPA (radioimmunoprecipitation assay) buffer plus 1 mM phenylmethylsulphonyl fluoride and Halt protease/phosphatase inhibitor cocktail (Thermo Scientific) at 4° C. Protein concentrations were measured by BCA Protein Assay Kit (Thermo Scientific). Protein was run on precast 4-15% sodium dodecyl sulfate polyacrylamide gels (Bio-Rad), transferred to polyvinylidene fluoride membranes (GE Water and Process Technologies), and then blocked in 5% non-fat milk for 1 hour at room temperature. The membranes were then incubated with 1:1000 diluted primary antibodies against indicated proteins (Cell Signaling). Specific antibody binding was detected by chemiluminescence using Western Lightening Plus regent (Perkin Elmer). Cells for (co) immunoprecipitation experiments were seeded in 15-cm dishes and cultured as described, using 6 million cells per immunoprecipitation reaction. For protein ubiquitination, cells were lysed in denaturing buffer (50 mM Tris-HCl, 0.5 mM EDTA and 1% SDS) followed by heating at 95° C. for 10 minutes and then quenched with 9 volumes of quenching buffer (0.5% Triton X-100, 20 mM Tris-HCl (pH 8.0), 137 mM NaCl, 10% glycerol, 2 mM EDTA). Protease inhibitor cocktail (Roche) was added fresh to all buffers. Cell lysates were incubated on a rotator for 30 minutes at 4° C., and then centrifuged at 20,000 g for 15 minutes at 4° C. Supernatants were subsequently incubated with anti-PD-L1 antibody overnight and processed using Dynabeads Protein G for Immunoprecipitation (Thermo Fisher Scientific). The final eluate was processed and Western blotting was performed.
# Quantitative Real-Time Reverse Transcriptase Polymerase Chain Reaction: Total RNA was isolated from homogenized whole lung tissue with Trizol reagent (Invitrogen) according to manufacturer instructions. […] Quantitative PCR (qPCR) was conducted using the Bio-Rad Real-Time PCR System (Applied Biosystems), amplified with transcript-specific primers with SYBR Green (Thermo Scientific), according to manufacturer instructions. […]
# PD-L1 = assay: Tumor cell PD-L1 depletion by drugs (flow cytometry, immunoblot); format: cell-based, human and mouse; details: for expression of PD-L1 in cancer cells: summary statement
# Procedure: High throughput Screening: B16 PD-L1 RFP cells were treated with 2.5 and 10 μM compounds from the Prestwick and LOPAC Libraries for 48 hours using the Agilent Bravo liquid pipetting platform. Then, cells were washed with PBS, and fixed with 4% paraformaldehyde (Electron Microscopy Sciences, Hatsfield, PA, Cat 15714S) and labeled with 2 μg/ml DAPI, (Molecular Probes, Cat D1306) and 1 μg/ml Cell Mask-Blue (Invitrogen, Cat. H32720). Plates were then imaged using the Operetta High Content Imaging System, Perkin Elmer, Waltham (DAPI and Cell Mask Blue, Ex 360-400, Em 410-480), and the RFP channels (Ex 520-550, Em 560-630) channels. Agents effecting ≥2-fold PD-L1 reduction in the RFP reporter without loss of ≥20% cell viability were candidate PD-L1 depletion agents.
# Flow cytometry: Mice were sacrificed by cervical dislocation after induction of deep isoflurane anesthesia. ID8agg tumors were collected and cells were stained as described (Derup et al., 2020) using LSR II hardware and analyzed by FACS Diva (BD Bioscience) or Flow Jo software (Flow Jo, LLC). Anti-mouse (clone 10F.9G2) and human (clone 29E.2A3) PD-L1 [both PE/Cy7, Cat #124314 (mouse) 329718 (human)] were matched with isotype control. Apoptosis assessment used Annexin V and propidium iodide (Thermo Scientific) per manufacturer instruction.
# as §2
# mTORC1 = assay: Western blots for mTORC1 pathway and LC3 autophagy; format: cell-based
# Procedure: FIGS. 40A-C: CAMB suppresses mTORC1 signals and reduces TIC numbers. FIG. 40A, Western blots for proteins in the mTORC1 pathway. Cells were treated with chlorambucil as indicated concentration for 48 hours. FIG. 40B, Western blot for LC3I/II to assess autophagy in cell lysates treated±chlorambucil at indicated concentrations. FIG. 40C, Percent of ALDH^hi TIC by flow cytometry of ES2 cells cultured±chlorambucil. Percent CD44^+CD24^+ ID8agg TIC and CD44^+CD133^+CD24^+ B16 TIC detected by flow cytometry.
# as §2
# [4] = tested on: PD-L1, Chk2, gH2AX in RT4 cells; assay: Cefepime depletion of PD-L1 and Chk2, DNA damage (gH2AX); format: cell-based, human
# Procedure: Experiments were performed to see if beta-lactam antibiotics may deplete PD-L1 in cancer cells. RT4 cells were incubated at 80 μM cefepime.
# Next experiments were performed to see if beta-lacatam antibiotics can deplete Chk2 in vitro. RT4 cells were treated with 1 μM rabusertib (Chk1i), 75 μM cefepime (D7), or combination. Protein lysates were collected at 24, 48, 72, and 96 hours.
# [5] = tested on: UV induced TpN^61R derived CD274^+/+ or CD274^−/− melanoma cells; assay: Viability of de novo Nras CD274^+/+ versus CD274^−/− melanoma cells; format: cell-based, mouse; details: in vitro
# Description: FIGS. 26A-H: De novo PD-L1^KO tumors phenocopy important aspects of genetic PD-L1 depletion in established tumors. FIG. 26A, Melanoma-free survival of melanocyte specific CD274^fl,fl TpN^61R (KO) versus littermate (WT) autochthonous mice under conditions shown. FIG. 26B, Validation of PD-L1 expression by immunoblot (IB) of melanoma cells derived from UV induced (4.5 Kj/m^2) WT (CD274^+/+) or melanocyte specific CD274^KO (CD274^−/−) mice±in vitro interferon (IFN)-γ treatment. Viability curves of CD274^+/+ versus CD274^−/− cells treated with the selective Chk1 inhibitors FIG. 26C, prexasertib […] or FIG. 26D, rabusertib (LY2603618) in vitro at indicated concentrations. FIG. 26E, IB analysis of PD-L1, ATM, Chk2, and γH2AX of vehicle or rabusertib-treated CD274^+/+ and CD274^−/− cell lines. FIGS. 26F-H, Tumor growth curves in WT C57BL/6J mice (n=10 tumors/group) challenged with UV induced TpN^61R derived CD274^+/+ or CD274^−/− melanoma cells and treated with rabusertib (Chk1i, LY2603618) on the indicated treatment schedule. P values, two-way ANOVA.
# [6] = tested on: CTRL and PD-L1^KO RT4 cells; assay: Viability of RT4 cells treated with Chk1 inhibitor plus atezolizumab; format: cell-based, human; details: in vitro, absence of immune cells
# Procedure: FIGS. 27A-H: Anti-PD-L1 antibodies mimic genetic PD-L1 depletion to impair tumor cell-intrinsic DDR signals and promote sensitivity to Chk1 inhibition in vitro and in vivo. Cell viability of FIG. 27A, CTRL and FIG. 27B, PD-L1^KORT4 cells treated with LY2603618 (Chk1 inhibitor) as shown plus IgG1 isotype or atezolizumab (atezo, 3 μg/ml) for 72 hours in vitro. Mean+SEM, n=6 replicates, ***, P<0.001, unpaired t-test. FIG. 27C, Immunoblot (IB) analysis of ATM, Chk2, γH2AX and vinculin (VINC) of RT4 cells treated in vitro with isotype, atezolizumab, Chk1i, or their combination. FIG. 27D, Viability of 4T1 cells as in panel A substituting anti-murine PD-L1 and isotype controls. FIG. 27E, IB of 4T1 as in panel FIG. 27C. FIG. 27F, Tumor curves of NSG mice (n=10 tumors/group) challenged with 4T1 tumor cells and treated with Chk1i±αPD-L1. FIG. 27G, Tumor curves and FIG. 27H, tumor weights in WT […] mice challenged and treated as in panel FIG. 27F. P values, two-way ANOVA.
molecule,measurement,setting,value
CN(C)CCCOc1ccc(-c2ccc3ncc4c(c3c2)n(C2CCOCC2)c(=O)n4C)cn1 [AZD0156],sensitivity of PD-L1^KO versus control RT4 cells to the agent,[1],Minimal effects
same,sensitivity of PD-L1^KO versus control ID8agg cells to the agent,[2],Minimal effects
C[C@@H]1COCCN1c1cc(C2([S@](C)(=N)=O)CC2)nc(-c2cc[nH]c3nccc2-3)n1 [AZD6738],sensitivity of PD-L1^lo versus control 4T1 cells to the agent,[3],enhanced sensitivity
same,sensitivity of PD-L1^KO versus control ID8agg cells to the agent,[2]; listed as ATRi,enhanced sensitivity
CO/N=C(\C(=O)N[C@@H]1C(=O)N2C(C(=O)O)=C(CSc3nc(=O)c(=O)[nH]n3C)CS[C@H]12)c1csc(N)n1 [Ceftriaxone],synthetic lethality with Chk1i,RT4 cells,not as effective
CC(C)C[C@@H](C=O)NC(=O)[C@H](CC(C)C)NC(=O)[C@H](CC(C)C)NC(=O)OCc1ccccc1 [MG132] (Cbz-Leu-Leu-Leu-aldehyde),effect on CAMB-mediated PD-L1 reduction,PD-L1 in OVCAR5 cells,abolished CAMB-mediated PD-L1 reduction
same,PD-L1 expression,PD-L1 in OVCAR5 cells; by 6 hours after treatment,increased PD-L1 expression
"Nc1nc2c(ncn2CCOCP(=O)(O)O)c(=O)[nH]1 [PMEG, 9-(2-phosphonylmethoxyethyl) guanine]",effect on cell viability,"PD-L1; over 2-3 days, human and mouse tumor lines",little effect on cell viability
same,expression of PD-L1 in cancer cells,PD-L1,decreased expression of PD-L1
same,autophagy,mTORC1,promote autophagy
same,mTORC1 signals,mTORC1,suppress mTORC1 signals
CC1(C)S[C@@H]2[C@H](NC(=O)Cc3ccccc3)C(=O)N2[C@H]1C(=O)O [Penicillin G],synthetic lethality with Chk1i,RT4 cells,not induce synthetic lethality
Cc1nnc(SCC2=C(C(=O)O)N3C(=O)[C@@H](NC(=O)Cn4cnnn4)[C@H]3SC2)s1 [cefazolin],synthetic lethality with Chk1i,RT4 cells,not as effective
CO/N=C(\C(=O)N[C@@H]1C(=O)N2C(C(=O)[O-])=C(C[N+]3(C)CCCC3)CS[C@H]12)c1csc(N)n1 [cefepime],effect on rabusertib efficacy,"RT4 cells; FIG. 46B, cells not given",improves rabusertib efficacy
same,synthetic lethality with Chk1i,RT4 cells,elicited Chk1 inhibitor synthetic lethality in a PD-L1-dependent manner
same,Chk2,"[4]; FIGS. 44A-B, cells not given",depleted
same,"DNA damage, as measured via gH2AX","[4]; FIGS. 44A-B, cells not given",increased DNA damage
same,PD-L1,"[4]; FIGS. 44A-B, cells not given",depleted
same,Chk2 in vitro,"[4]; RT4 cells, 75 μM, 24-96 hours",deplete Chk2
same,PD-L1 expression in vitro,"[4]; RT4 cells, 80 μM",deplete PD-L1 expression
same,expression of PD-L1 in cancer cells,PD-L1,decreased expression of PD-L1
C[C@@H](O)[C@H]1C(=O)N2C(C(=O)O)=C(S[C@@H]3CN[C@H](C(=O)N(C)C)C3)[C@H](C)[C@H]12 [meropenem],synthetic lethality with Chk1i,RT4 cells,not induce synthetic lethality
COc1cccc(OCCCN)c1-c1cc(Nc2cnc(C#N)cn2)n[nH]1 [prexasertib],synthetic lethality in induced PD-L1^KO tumors,[5],exhibited synthetic lethality
atezolizumab,"viability of RT4 cells, single agent",[6],slightly reduced viability
